Publication PMC8958325 (iScience, 2022)

Assays:
HeLa cells = assay: Cell survival; format: cell-based; conditions: Homo sapiens, 24 h, read-out: IC50 (μM) for cell survival
Mms2–Ubc13 = Mms2–Ubc13 (Homo sapiens, UniProt P61088+Q15819); assay: Mms2–Ubc13∼ubiquitin thioester formation gel-based assay; format: biochemical; conditions: at 100 μM, silver-stained gel
Uba1 = target: T1, Uba1 (Homo sapiens, UniProt P22314); assay: Uba1∼ubiquitin thioester formation Alpha assay; format: biochemical; conditions: for inhibition of Uba1∼ubiquitin thioester formation: Alpha assay
T1 sequence (P22314 1-1058): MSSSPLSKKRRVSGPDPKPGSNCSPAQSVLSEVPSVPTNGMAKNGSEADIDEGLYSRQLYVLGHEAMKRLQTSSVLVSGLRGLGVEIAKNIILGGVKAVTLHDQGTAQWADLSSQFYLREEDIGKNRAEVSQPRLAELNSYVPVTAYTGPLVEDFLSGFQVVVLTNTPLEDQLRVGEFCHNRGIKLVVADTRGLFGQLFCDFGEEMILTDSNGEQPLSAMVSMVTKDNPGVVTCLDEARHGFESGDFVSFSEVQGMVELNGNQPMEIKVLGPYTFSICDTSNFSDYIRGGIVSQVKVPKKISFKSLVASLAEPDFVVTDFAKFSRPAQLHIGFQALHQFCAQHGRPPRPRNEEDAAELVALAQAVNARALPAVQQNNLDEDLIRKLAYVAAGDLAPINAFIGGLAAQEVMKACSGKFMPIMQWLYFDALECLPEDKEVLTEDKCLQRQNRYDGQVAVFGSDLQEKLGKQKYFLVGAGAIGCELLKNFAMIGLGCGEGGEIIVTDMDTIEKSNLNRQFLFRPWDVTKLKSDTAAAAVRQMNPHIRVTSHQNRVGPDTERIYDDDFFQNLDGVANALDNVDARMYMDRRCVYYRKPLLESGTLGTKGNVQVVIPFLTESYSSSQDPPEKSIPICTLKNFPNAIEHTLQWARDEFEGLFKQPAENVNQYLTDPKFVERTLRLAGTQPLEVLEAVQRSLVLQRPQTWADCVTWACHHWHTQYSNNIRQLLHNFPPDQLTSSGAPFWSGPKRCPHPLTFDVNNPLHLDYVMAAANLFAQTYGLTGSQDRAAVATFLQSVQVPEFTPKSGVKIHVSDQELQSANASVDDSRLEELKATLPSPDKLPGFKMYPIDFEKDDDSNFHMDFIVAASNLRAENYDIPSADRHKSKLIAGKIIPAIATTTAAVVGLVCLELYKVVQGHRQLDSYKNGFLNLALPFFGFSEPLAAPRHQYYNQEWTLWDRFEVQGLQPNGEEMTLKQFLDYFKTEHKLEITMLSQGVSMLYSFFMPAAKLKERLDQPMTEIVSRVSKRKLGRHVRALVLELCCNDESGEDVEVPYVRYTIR

PCNA ubiquitination = assay: Alpha assay for overall PCNA ubiquitination; format: biochemical, human; conditions: for IC50: read-out: IC50 PCNA–Ub, SE and 95% CI in cell
Rad18 [1] = target: Rad18 (Homo sapiens, UniProt P63146); assay: biochemical; format: biochemical; conditions: for inhibition of Rad18 autoubiquitination: Alpha assay
Rad6–Ubr1 interaction = Rad6–Ubr1 interaction (Homo sapiens, UniProt P63146); assay: Rad6–Ubr1 interaction Alpha assay; format: binding
Rad6 [2] = target: T2, Rad6 (Homo sapiens, UniProt P63146); assay: Microscale thermophoresis, binding to GFP-Rad6
Rad6–Rad18 interaction = Rad6–Rad18 interaction (Homo sapiens, UniProt P63146); assay: Rad6–Rad18 interaction Alpha assay; format: binding; conditions: for disruption of the Rad6–Rad18 interaction: Alpha assay
Rad6 [3] = target: T2, Rad6; assay: biochemical; format: biochemical; conditions: for inhibition of formation of the Rad6∼ubiquitin thioester conjugate: Alpha assay
Rad18 [4] = target: Rad18 (Homo sapiens, UniProt Q9NS91); assay: Microscale thermophoresis, binding to GFP-Rad18; conditions: low concentrations used for the Rad6-binding study
Sequence of Rad18 (Homo sapiens, UniProt Q9NS91) (Q9NS91 whole entry): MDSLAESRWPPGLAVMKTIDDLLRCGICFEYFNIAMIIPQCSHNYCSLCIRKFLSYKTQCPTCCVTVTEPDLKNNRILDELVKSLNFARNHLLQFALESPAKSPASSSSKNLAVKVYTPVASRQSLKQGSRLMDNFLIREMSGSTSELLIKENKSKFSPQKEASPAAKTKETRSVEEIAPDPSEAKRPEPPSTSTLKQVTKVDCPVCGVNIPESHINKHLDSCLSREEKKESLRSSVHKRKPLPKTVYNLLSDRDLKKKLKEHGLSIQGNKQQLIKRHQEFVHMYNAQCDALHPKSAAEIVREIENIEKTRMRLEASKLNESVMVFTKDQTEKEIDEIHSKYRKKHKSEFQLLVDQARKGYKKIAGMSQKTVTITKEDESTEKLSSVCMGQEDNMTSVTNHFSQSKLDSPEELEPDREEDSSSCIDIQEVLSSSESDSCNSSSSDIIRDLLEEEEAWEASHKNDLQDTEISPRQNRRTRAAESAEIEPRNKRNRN

Sequence of Mms2–Ubc13 (P61088 whole entry): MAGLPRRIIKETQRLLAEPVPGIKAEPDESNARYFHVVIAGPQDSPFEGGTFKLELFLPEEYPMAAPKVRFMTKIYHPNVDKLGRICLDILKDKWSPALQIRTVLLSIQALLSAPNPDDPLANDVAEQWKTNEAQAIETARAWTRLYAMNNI
Sequence of Mms2–Ubc13 (Q15819 whole entry): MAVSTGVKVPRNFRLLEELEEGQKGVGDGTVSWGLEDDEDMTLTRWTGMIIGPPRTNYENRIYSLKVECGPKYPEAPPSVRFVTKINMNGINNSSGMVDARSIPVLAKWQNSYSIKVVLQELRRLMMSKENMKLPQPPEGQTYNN
Sequence of Rad18 (Homo sapiens, UniProt P63146) (P63146 whole entry): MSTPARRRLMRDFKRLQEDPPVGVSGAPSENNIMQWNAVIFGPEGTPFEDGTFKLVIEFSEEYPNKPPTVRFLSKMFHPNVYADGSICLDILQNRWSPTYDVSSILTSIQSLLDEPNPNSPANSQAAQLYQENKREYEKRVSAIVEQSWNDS
Sequence of Rad6–Rad18 interaction (P63146 whole entry): as above
T2 sequence (P63146 whole entry): as above
Sequence of Rad6–Ubr1 interaction (P63146 whole entry): as above

| Structure (SMILES) | IC50 (HeLa cells) [µM] | Mms2–Ubc13∼Ub inhibition on gel (Mms2–Ubc13) | IC50 (Uba1) [µM] | effect on PCNA ubiquitination (PCNA ubiquitination; Figure 3G) | IC50 (PCNA ubiquitination) [µM] | IC50 (Rad18 [1]) [µM] | inhibition of Rad18 autoubiquitination (Rad18 [1]) | IC50 (Rad6–Ubr1 interaction) [µM] | Kd (Rad6 [2]) [µM] | IC50 (Rad6–Rad18 interaction) [µM] | disruption of the Rad6–Rad18 interaction (Rad6–Rad18 interaction) | IC50 (Rad6 [3]) [µM] | inhibition of formation of the Rad6∼ubiquitin thioester conjugate (Rad6 [3]) | binding to Rad18 (Rad18 [4]) | Rad6–Ubr1 inhibition by Alpha (Rad6–Ubr1 interaction; at 50 μM) | inhibition of Uba1∼ubiquitin thioester formation (Uba1) |
| --- | --- | --- | --- | --- | --- | --- | --- | --- | --- | --- | --- | --- | --- | --- | --- | --- |
| COc1ccc(C2c3cc(O)c(OC)cc3Oc3cc(OC)c(O)cc32)cc1 [NSC 348718, 3,6-dimethoxy-9-(4-methoxyphenyl)-9H-xanthene-2,7-diol] | 27.7 | No inhibition on gel at 100 μM | > 100 | inactive | > 100 | – | – | – | – | – | – | – | – | – | – | – |
| O=c1cc2oc3cc(O)c(O)cc3c(-c3ccccc3O)c-2cc1O [NSC 9037, 2,6,7-trihydroxy-9-(2-hydroxyphenyl)-3H-xanthen-3-one] | 62.2 | No inhibition on gel at 100 μM | > 100 | – | 4.54 | 4.46 | inhibit | > 50 | 3.79 ± 2.94 | 6.19 | disrupt | 8.9 | inhibit | very weak binding | – | – |
| O=C(O)c1ccc(-c2c3ccc(=O)cc-3oc3cc(O)ccc23)cc1 [NSC 119891, 4-(3-hydroxy-6-oxoxanthen-9-yl)benzoic acid] | 208 | No inhibition on gel at 100 μM | > 100 | – | – | – | – | – | – | – | – | – | – | – | – | – |
| Cc1cc2c(-c3ccccc3)c3cc(C)c(N)cc3nc2cc1N [NSC 71947, 2,7-dimethyl-9-phenylacridine-3,6-diamine] | 11.8 | No inhibition on gel at 100 μM | > 100 | – | 24.9 | – | – | – | – | – | – | – | – | – | – | – |
| CN(C)c1ccc(-c2c3cc(O)c(=O)cc-3oc3cc(O)c(O)cc23)cc1 [NSC 80693, 9-[4-(dimethylamino)phenyl]-2,6,7-trihydroxy-3H-xanthen-3-one] | 7.67 | No inhibition on gel at 100 μM | > 100 | – | 4.28 | 13.2 | inhibit | – | – | 14.6 | disrupt | 91.8 | inhibit | – | Little inhibition by Alpha at 50 μM | – |
| O=C(O)C1CC=CCC1c1c2ccc(=O)cc-2oc2cc(O)ccc12 (stereo not drawn) [NSC 157411, 6-(3-Hydroxy-6-oxo-xanthen-9-yl)cyclohex-3-ene-1-carboxylic acid] | 428 | No inhibition on gel at 100 μM | 24.8 | – | 8.44 | – | – | – | – | – | – | – | – | – | – | inhibit |
| O=C(O)c1cccc(-c2c3ccc(=O)cc-3oc3cc(O)ccc23)c1 [NSC 119888, 3-(3-hydroxy-6-oxoxanthen-9-yl)benzoic acid] | 75.3 | No inhibition on gel at 100 μM | 53.8 | – | – | – | – | – | – | – | – | – | – | – | – | inhibit |
